Drawing on PubChem BioAssay (NCI), this text covers GI50 and TGI for 9 molecules.

Molecules are shown by their SMILES.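 How tested: cells in 96-well plates exposed to compound for 48 hours at five concentrations. GI50: concentration for 50% inhibition of growth. The concentration for full growth arrest is given as TGI.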

Holding throughout (experiment): inhibition of tumour cell growth, NCI panel, 48 h
Test [1] concerns A549 NSCLC.
Test [2] relates to HOP-92 NSCLC.
Test [3] concerns SF-539 CNS.
In test [4] the test system is DU-145 prostate.
The subject of test [5] is SK-OV-3 ovarian.
Test [6] deals with 786-0 renal.
In test [7] the test system is SK-MEL-2 melanoma.
Test [8] has as its system ACHN renal.
In test [9] the test system is KM12 colon.
The subject of test [10] is NCI-H23 lung.

Consider `CC(=N\O)/C(C)=N/O.CC(=N\O)/C(C)=N/O.CC(=N\O)/C(C)=N/O.CC(=N\O)/C(C)=N/O.[Cu].[Cu]`, for which the GI50 in test [1] is 23 µM; in test [2], 18.4 µM; in test [3] it was 20.8 µM; in test [4], 56.8 µM; in [5], 18.6 µM; in [6] it was 19.8 µM. For the same molecule, the results for the GI50 in [7], in test [8] and in [9] were 17.4 µM, 18.7 µM and 20.6 µM, respectively. Besides, the TGI in test [1] is 48.5 µM; in test [2], 32.8 µM; in [3] it was 37.2 µM; in test [4], over 100 µM; in test [5], 34.5 µM; in [6], 36.8 µM. The TGI came out at 31.4 µM in test [7], 32.7 µM in test [8] and 36.4 µM in [9].
In the case of `ON(CCc1ccncc1)Cc1ccccc1`, the TGI in test [1], in test [10], in test [2], in [3], in test [4] and in test [5] was over 100 µM throughout. In addition, the TGI in test [6], in test [8] and in test [9] was over 100 µM in each case.
As for `Cc1[nH]c(C(=O)Nc2ccc(C(=O)N3CCNCC3)cc2OC(C)C)c(Cl)c1Cl`, the GI50 in test [10] is 1.95 µM; in test [2], 1.62 µM; in test [3] it was 1.73 µM; in test [4] it was 2.06 µM; in test [6], 1.63 µM; in test [7], 1.97 µM. In addition, the GI50 in test [8] was 1.68 µM; in test [9], 1.84 µM. In addition, the TGI is 4.21 µM in [10]; 6.07 µM in test [2]; 3.19 µM in test [3]; 4.06 µM in test [4]; 3.18 µM in test [6]; 3.79 µM in [7]. Moreover, the TGI in test [8] was found to be 3.07 µM; in test [9] it was 3.46 µM.
As to `CC1=C(SCc2ccccc2)C(=O)c2ccccc2C1=O`, the TGI in test [10] is 41.8 µM; in test [2] it was 19 µM; in test [3], 30 µM; in [4], 34.9 µM; in test [5], 44.6 µM; in test [6] it was 30.9 µM. The figures for the TGI in test [7], in test [8] and in test [9] were 40.1 µM, 27.2 µM and 35.7 µM, respectively.
In the case of `N#Cc1c2ccccc2c2n1-c1ccccc1OC(c1ccccc1)C2=O` (configuration not stated), the GI50 in [1] was 3.11 µM; in [10] it was 2.95 µM; in [2], 2.01 µM; in test [3] it was 4.29 µM; in [4] it was 6.1 µM; in test [5], 6.03 µM. In addition, the figures for the GI50 in test [6], in [8] and in test [9] were 4.91 µM, 3.73 µM and 3.32 µM, respectively. Besides, the TGI in test [1] worked out at 29.3 µM; in [10] it was 15 µM; in test [2], 5.88 µM; in [3] it was 16.8 µM; in [4], 26.3 µM; in test [5], 48.6 µM. In addition, the results for the TGI in [6], in test [8] and in test [9] were 23 µM, over 100 µM and 10.8 µM, respectively.
`Cc1ccc2c[c]1[Hg][CH2]COS2(=O)=O`: the GI50 in [1] was over 100 µM; in test [10], 23.4 µM; in [2], 19.5 µM; in test [3], 18 µM; in test [4] it was 18.8 µM; in test [5], over 100 µM. The figures for the GI50 in test [6], in [7] and in test [8] were 18.1 µM, 21.4 µM and 16.2 µM, respectively. The TGI in [1] is over 100 µM; in [10] it was 49.2 µM; in test [2] it was 38.3 µM; in [3] it was 32.5 µM; in test [4], 32.8 µM; in test [5], over 100 µM. The results for the TGI in [6], in test [7] and in [8] were 32 µM, 38.4 µM and 29.7 µM, respectively.
With `COC(=O)Nc1nc2ccc(Oc3ccc(NC(=O)Nc4cccc(Br)c4)cc3)cc2[nH]1`, the GI50 in test [1] is 4.24 µM; in test [10], 3.23 µM; in test [2], 3.33 µM; in test [3], 2.04 µM; in [4], 3.15 µM; in test [5], 2.95 µM. Further, the GI50 in [6] is 3.9 µM; in test [8], 5.53 µM; in test [9] it was 0.119 µM. The TGI in test [1] is over 13.4 µM; in [10], over 17.1 µM; in [2], 12.7 µM; in test [3] it was over 20.8 µM; in [4] it was over 14.6 µM; in [5], 15.3 µM. Moreover, the TGI in test [6] is over 24.1 µM; in test [8] it was over 25 µM; in test [9] it was 3.97 µM.
With `O=CN1N=C(c2ccc(Nc3ccnc4cc(Cl)ccc34)cc2)CC1c1ccccc1` (configuration not stated), the GI50 in test [1] was 4.05 µM; in test [10], 3.64 µM; in test [2], 4.28 µM; in test [3], 4.57 µM; in [4] it was 3.8 µM; in [5], 11.3 µM. The GI50 in [6] was 3.36 µM; in [8], 4.21 µM; in test [9], 3.41 µM. Besides, the TGI in test [1] is over 100 µM; in [10], over 100 µM; in test [2] it was over 100 µM; in test [3] it was 18.7 µM; in test [4] it was 27.8 µM; in test [5], over 100 µM. The TGI came to 12.2 µM in test [6], 84.4 µM in [8] and 56.9 µM in test [9].
As for `COc1cc2c(cc1OCCCOC1=C=C=C(c3ccc4c(c3)c3cc(-c5ccc(OCCCOc6cc7c(cc6OC)C(=O)N6CCC[C@H]6C=N7)cc5)ccc3n4S(=O)(=O)c3ccc(C)cc3)C=C1)N=C[C@@H]1CCCN1C2=O`, the GI50 in test [1] is 6.7 µM; in test [10], 2.57 µM; in [2] it was 0.79 µM; in [3], 1.74 µM; in test [4], 1.13 µM; in test [5] it was 5.42 µM. Moreover, the GI50 is 1.38 µM in [6], 1.75 µM in test [8] and 1.46 µM in test [9]. Besides, the TGI came to 20.5 µM in [1]; 24.2 µM in test [10]; 3.37 µM in [2]; 6.3 µM in test [3]; 2.73 µM in test [4]; 16.5 µM in [5]. Further, the values for the TGI in test [6], in test [8] and in test [9] were 4.12 µM, 7.8 µM and 4.3 µM, respectively.
